Experimental data reported in ChEMBL document CHEMBL5500353, “Discovery of novel amide derivatives as potent quorum sensing inhibitors of Pseudomonas aeruginosa” (Eur J Med Chem, 2024).
Active and inactive are the calls of the source. The calls are words filed in the database; no cut-off is given here.

Key:
[1] = Inhibition of quorum sensing system in Pseudomonas aeruginosa PAO1-lasB-gfp assessed as inhibition of lasB expression at 50 ug/ml incubated for 8 hrs under shaking condition by microplate reader based analysis relative to control; conditions: dose 50.0 µg/ml
[2] = Inhibition of quorum sensing system in Pseudomonas aeruginosa PAO1-rhlA-gfp assessed as inhibition of rhlA expression at 50 ug/ml incubated for 8 hrs under shaking condition by microplate reader based analysis relative to control; conditions: dose 50.0 µg/ml
[3] = Inhibition of quorum sensing system in Pseudomonas aeruginosa PAO1-pqsA-gfp assessed as inhibition of pqsA expression at 50 ug/ml incubated for 8 hrs under shaking condition by microplate reader based analysis relative to control; conditions: dose 50.0 µg/ml
[4] = system: Pseudomonas aeruginosa; experiment: Antibacterial activity against Pseudomonas aeruginosa PAO1 at 80 to 160 ug/ml incubated for 48 hrs by absorbance based analysis; type: functional, organism-based; conditions: dose 80-160 µg/ml
[5] = system: Pseudomonas aeruginosa; experiment: Anti-virulence activity in Pseudomonas aeruginosa PAO1 assessed as reduction in elastase production at 160 ug/ml by congo red dye based microplate reader analysis; type: functional, organism-based; conditions: dose 160.0 µg/ml
[6] = system: Pseudomonas aeruginosa; experiment: Anti-virulence activity in Pseudomonas aeruginosa PAO1 assessed as reduction in rhamnolipid production at 160 ug/ml incubated for 48 hrs by absorbance based analysis; type: functional, organism-based; conditions: dose 160.0 µg/ml
[7] = system: Pseudomonas aeruginosa; experiment: Anti-virulence activity in Pseudomonas aeruginosa PAO1 assessed as reduction in pyocyanin production at 160 ug/ml by absorbance based analysis; type: functional, organism-based; conditions: dose 160.0 µg/ml
[8] = system: Pseudomonas aeruginosa; experiment: Anti-virulence activity in Pseudomonas aeruginosa PAO1 assessed as reduction in pyoverdine production at 160 ug/ml by absorbance based analysis; type: functional, organism-based; conditions: dose 160.0 µg/ml
[9] = system: Pseudomonas aeruginosa; experiment: Antibiofilm activity against Pseudomonas aeruginosa PAO1 assessed as reduction in biofilm production at 160 ug/ml incubated for 72 hrs by crystal violet staining based analysis; type: functional, organism-based; conditions: dose 160.0 µg/ml
[10] = system: Pseudomonas aeruginosa; experiment: Anti-motility activity against Pseudomonas aeruginosa PAO1 assessed as reduction in swarming at 160 ug/ml incubated for 12 hrs; type: functional, organism-based; conditions: dose 160.0 µg/ml
[11] = Cytotoxicity against human HepG2 cells assessed as inhibition of cell growth at 100 ug/ml measured after 48 hrs by CCK-8 method relative to control; type: toxicity, cell-based; conditions: at 100 µg/mL
[12] = Cytotoxicity against human HepG2 cells assessed as inhibition of cell growth at 10 ug/ml measured after 48 hrs by CCK-8 method relative to control; type: toxicity, cell-based; conditions: at 10 µg/mL
[13] = system: Pseudomonas aeruginosa; experiment: Antibacterial activity against Pseudomonas aeruginosa infected in Galleria mellonella larvae infection model assessed as increase in survival rate at 160 ug/ml preincubated with measured after 72 hrs; type: functional, organism-based; conditions: dose 160.0 µg/ml
[14] = system: Pseudomonas aeruginosa; experiment: Downregulation of lasR mRNA expression in Pseudomonas aeruginosa PAO1 at 160 ug/ml incubated for 6 hrs by RT-qPCR analysis; type: functional; conditions: dose 160.0 µg/ml
[15] = system: Pseudomonas aeruginosa; experiment: Downregulation of lasA mRNA expression in Pseudomonas aeruginosa PAO1 at 160 ug/ml incubated for 6 hrs by RT-qPCR analysis; type: functional; conditions: dose 160.0 µg/ml
[16] = system: Pseudomonas aeruginosa; experiment: Downregulation of lasB mRNA expression in Pseudomonas aeruginosa PAO1 at 160 ug/ml incubated for 6 hrs by RT-qPCR analysis; type: functional; conditions: dose 160.0 µg/ml
[17] = system: Pseudomonas aeruginosa; experiment: Downregulation of lasl-mRNA expression in Pseudomonas aeruginosa PAO1 at 160 ug/ml incubated for 6 hrs by RT-qPCR analysis; type: functional; conditions: dose 160.0 µg/ml
[18] = system: Pseudomonas aeruginosa; experiment: Downregulation of pqsA mRNA expression in Pseudomonas aeruginosa PAO1 at 160 ug/ml incubated for 6 hrs by RT-qPCR analysis; type: functional; conditions: dose 160.0 µg/ml
[19] = system: Pseudomonas aeruginosa; experiment: Downregulation of pqsR mRNA expression in Pseudomonas aeruginosa PAO1 at 160 ug/ml incubated for 6 hrs by RT-qPCR analysis; type: functional; conditions: dose 160.0 µg/ml
[20] = system: Pseudomonas aeruginosa; experiment: Downregulation of rhll-mRNA expression in Pseudomonas aeruginosa PAO1 at 160 ug/ml incubated for 6 hrs by RT-qPCR analysis; type: functional; conditions: dose 160.0 µg/ml
[21] = system: Pseudomonas aeruginosa; experiment: Downregulation of rhlR mRNA expression in Pseudomonas aeruginosa PAO1 at 160 ug/ml incubated for 6 hrs by RT-qPCR analysis; type: functional; conditions: dose 160.0 µg/ml
[22] = system: Pseudomonas aeruginosa; experiment: Downregulation of phzM mRNA expression in Pseudomonas aeruginosa PAO1 at 160 ug/ml incubated for 6 hrs by RT-qPCR analysis; type: functional; conditions: dose 160.0 µg/ml
[23] = system: Pseudomonas aeruginosa; experiment: Downregulation of chiC mRNA expression in Pseudomonas aeruginosa PAO1 at 160 ug/ml incubated for 6 hrs by RT-qPCR analysis; type: functional; conditions: dose 160.0 µg/ml
[24] = system: Pseudomonas aeruginosa; experiment: Antibacterial activity against Pseudomonas aeruginosa PAO1 at 80 ug/ml incubated for 48 hrs by absorbance based analysis; type: functional, organism-based; conditions: dose 80.0 µg/ml
[25] = target: T1, Transcriptional activator protein LasR (Pseudomonas aeruginosa (strain ATCC 15692 / PAO1 / 1C / PRS 101 / LMG12228), UniProt P25084); experiment: Binding affinity to Pseudomonas aeruginosa PAO1 LasR assessed as dissociation constant by SPR analysis
T1 sequence (P25084 whole entry): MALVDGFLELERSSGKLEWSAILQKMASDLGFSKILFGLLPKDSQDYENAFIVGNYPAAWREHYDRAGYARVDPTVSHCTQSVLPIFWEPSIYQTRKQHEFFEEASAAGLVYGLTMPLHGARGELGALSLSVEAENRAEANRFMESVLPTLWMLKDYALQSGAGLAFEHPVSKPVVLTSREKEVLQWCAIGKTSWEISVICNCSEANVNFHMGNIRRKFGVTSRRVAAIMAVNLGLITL

[26] = target: T2, Transcriptional regulator MvfR (Pseudomonas aeruginosa PA14, UniProt A0A072ZLE6); experiment: Binding affinity to Pseudomonas aeruginosa PAO1 PqsR expressed in Escherichia coli BL21 assessed as dissociation constant by SPR analysis
T2 sequence (A0A072ZLE6 whole entry): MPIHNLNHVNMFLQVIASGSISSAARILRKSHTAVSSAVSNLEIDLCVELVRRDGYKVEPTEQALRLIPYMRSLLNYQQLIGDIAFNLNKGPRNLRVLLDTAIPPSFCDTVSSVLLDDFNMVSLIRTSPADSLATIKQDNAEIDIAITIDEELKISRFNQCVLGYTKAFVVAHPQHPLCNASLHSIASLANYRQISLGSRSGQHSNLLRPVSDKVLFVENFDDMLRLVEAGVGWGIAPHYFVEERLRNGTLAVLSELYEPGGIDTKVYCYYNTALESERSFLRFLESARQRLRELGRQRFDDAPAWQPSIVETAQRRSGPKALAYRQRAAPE

## CCCCCCC(=O)NCC(C)C
[1]
  inhibition: 2.28%
[2]
  inhibition: 8.21%
[3]
  inhibition: 5.99%

## C=C(C)CNC(C)=O
[1]
  inhibition: 10.5%
[2]
  inhibition: 10.2%
[3]
  inhibition: 59.1%

## CC(=O)NCC(C)(C)O
[1]
  inhibition: 1.11%
[2]
  inhibition: 13.8%

## C=C(C)CNC(=O)/C=C/CCC
[1]
  inhibition: 77.1%
[2]
  inhibition: 85%
[3]
  inhibition: 40%
[4]
  Activity: inactive
[5]
  Activity: Active
[6]
  Activity: Active
[7]
  Activity: Active
[8]
  Activity: Active
[9]
  Activity: Active
[10]
  Activity: Active
[11]
  inhibition at 48 h, 100 ug/ml: 18.9%
[12]
  inhibition at 48 h, 10 ug/ml: 9.91%
[13]
  Activity: Active
[14]
  Activity: inactive
[15]
  Activity: Active
[16]
  Activity: Active
[17]
  Activity: Active
[18]
  Activity: Active
[19]
  Activity: inactive
[20]
  Activity: Active
[21]
  Activity: Active
[22]
  Activity: Active
[23]
  Activity: Active

## CCC/C=C/C(=O)NCC(C)C
[1]
  inhibition: 64.1%
[2]
  inhibition: 80.5%
[3]
  inhibition: 26.5%
[23]
  Activity: Active

## C=C(C)CNC(=O)CCCCC
[1]
  inhibition: 72.7%
[2]
  inhibition: 79.7%
[3]
  inhibition: 36.1%

## CCC/C=C/C(=O)NCC(C)(C)O
[1]
  inhibition: 34.5%
[2]
  inhibition: 50.1%

## CCCCCCC(=O)NCC(C)(C)O
[1]
  inhibition: 13.1%
[2]
  inhibition: 18.1%

## C/C=C/C=C/C(=O)NCC(C)(C)O
[1]
  inhibition: 26.3%
[2]
  inhibition: 32.4%

## C=C(C)CNC(=O)CCCC
[1]
  inhibition: 72.2%
[2]
  inhibition: 76.9%
[3]
  inhibition: 26%

## C=CCSSCC=C [DIALLYLDISULFIDE]
[1]
  inhibition: 36.1%
[2]
  inhibition: 38%
[3]
  inhibition: 34.6%
[24]
  Activity: inactive
[11]
  inhibition at 48 h, 100 ug/ml: 18.1%

## CCC(=O)NCC(C)(C)O
[1]
  inhibition: 7.26%
[2]
  inhibition: 28.3%

## C=C(C)CNC(=O)CCCCCC
[1]
  inhibition: 61.6%
[2]
  inhibition: 68.4%
[3]
  inhibition: 42.5%

## CCCCC(=O)NCC(C)C
[1]
  inhibition: 77.2%
[2]
  inhibition: 65.8%
[3]
  inhibition: 30.2%

## CCC(=O)NCC(C)C
[1]
  inhibition: 54.6%
[2]
  inhibition: 71%
[3]
  inhibition: 27.8%

## C=CC(=O)NCC(C)C
[1]
  inhibition: 55.1%
[2]
  inhibition: 68.6%
[3]
  inhibition: 12.6%

## CCCCCC(=O)NCC(C)C
[1]
  inhibition: 70%
[2]
  inhibition: 72.4%
[3]
  inhibition: 13.6%

## C=C(C)CNC(=O)CCC
[1]
  inhibition: 61.5%
[2]
  inhibition: 64.5%
[3]
  inhibition: 38.1%

## C=CC(=O)NCC(C)(C)O
[1]
  inhibition: 6.82%
[2]
  inhibition: 29.7%
[3]
  inhibition: 0.28%

## C/C=C/C=C/C(=O)NCC(C)C
[1]
  inhibition: 82.2%
[2]
  inhibition: 84.1%
[3]
  inhibition: 65.5%
[4]
  Activity: inactive
[5]
  Activity: Active
[6]
  Activity: Active
[7]
  Activity: Active
[8]
  Activity: Active
[9]
  Activity: Active
[10]
  Activity: Active
[11]
  inhibition at 48 h, 100 ug/ml: 30.1%
[12]
  inhibition at 48 h, 10 ug/ml: -2.16%
[13]
  Activity: Active
[14]
  Activity: inactive
[15]
  Activity: Active
[16]
  Activity: Active
[17]
  Activity: Active
[18]
  Activity: Active
[19]
  Activity: inactive
[20]
  Activity: Active
[21]
  Activity: Active
[22]
  Activity: Active
[25]
  Kd: 1230 µM
[26]
  Kd: 8.36 µM

## CC(=O)NCC(C)C
[1]
  inhibition: 13.8%
[2]
  inhibition: 18.9%
[3]
  inhibition: 11%

## CCCC(=O)NCC(C)C
[1]
  inhibition: 65.7%
[2]
  inhibition: 65.4%
[3]
  inhibition: 29.8%

## CC/C=C/C(=O)NCC(C)C
[1]
  inhibition: 71.5%
[2]
  inhibition: 72.7%
[3]
  inhibition: 26.2%

## C=C(C)CNC(=O)/C=C/C
[1]
  inhibition: 67.5%
[2]
  inhibition: 80%
[3]
  inhibition: 38%

## CCCC(=O)NCC(C)(C)O
[1]
  inhibition: 37.4%
[2]
  inhibition: 43.1%
[3]
  inhibition: -6.15%

## CC/C=C/C(=O)NCC(C)(C)O
[1]
  inhibition: 53.1%
[2]
  inhibition: 58.1%
[3]
  inhibition: -8.67%

## CCCCC(=O)NCC(C)(C)O
[1]
  inhibition: 40%
[2]
  inhibition: 55.8%
[3]
  inhibition: 1.47%

## C/C=C/C(=O)NCC(C)C
[1]
  inhibition: 63.7%
[2]
  inhibition: 72.3%
[3]
  inhibition: 27.8%

## C=CC(=O)NCC(=C)C
[1]
  inhibition: 54.7%
[2]
  inhibition: 63.9%
[3]
  inhibition: 2.45%

## C=C(C)CNC(=O)/C=C/C=C/C
[1]
  inhibition: 38.9%
[2]
  inhibition: 56.8%
[3]
  inhibition: 11.8%

## C/C=C/C(=O)NCC(C)(C)O
[1]
  inhibition: 29.9%
[2]
  inhibition: 41.9%

## CCCCCC(=O)NCC(C)(C)O
[1]
  inhibition: 32.4%
[2]
  inhibition: 54.9%
